Where only a bound is given, the exact number is not on record here.

Results on seven molecules are retold here after patent US8163743B2, “4-carboxamide indazole derivatives useful as inhibitors of PI3-kinases” (GlaxoGroupLimited, priority 2008, dated 2012).

In series [1] the test system is IFN-γ or IL-5 production in human PBMC. Description: Inhibition of Interferon-Gamma (IFN-γ) or IL-5 production in human PBMC assay (MSD technology). Format: cell-based. The conditions noted are these: human PBMC assay or a similar assay; CYTOSTIM stimulation, 20 hours; read-out: mean pIC50 (converted). The protocol:
Inhibition of Interferon-Gamma (IFN-γ) or IL-5 Production in Human PBMC (Peripheral Blood Mononuclear Cell) Assay (MSD Technology)
A 96-well plate (96 MicroWell™ Plates Nunclon™—High Flange Design, Fisher Scientific UK, Loughborough, UK) is prepared by initially adding to column 1 ca. 10 mM of test compound dissolved in DMSO. […] The compound is further diluted with DMSO into columns 2 to 9 by 8 successive 4-fold dilutions using the Biomek® 2000 Laboratory Automation Workstation (Beckman Coulter, Inc., Fullerton, Calif.). Column 10 is used as a DMSO negative control (High Signal, 0% response), whilst column 11, which contains 10 mM of the pan-PI3K inhibitor wortmannin, is used as a positive control (Low Signal, 100% response). About 1 μl of compound is transferred to the compound plate using the Biomek® FX.
PBMC cells (peripheral blood mononuclear cells) are prepared from heparinised human blood (using 1% v/v Heparin Sodium 10001 U/ml Endotoxin Free, Leo Laboratories Ltd., Dublin. Ireland, Cat No: PL0043/0149) from normal volunteers using the Accuspin™ System-Histopaque®-1077 essentially (Sigma-Aldrich Company Ltd., Gillingham Dorset, UK). About 20 ml of blood is overlaid onto 15 ml Histopaque® in Accuspin™ tubes. The tube is then centrifuged at about 800 g for ca. 20 minutes. The cells are collected from the interface, washed by centrifugation (ca. 1300 g, ca. 10 minutes) and resuspended in assay medium (Low endotoxin RPMI1640 medium, Cat No: 31870-025, Invitrogen Corporation Invitrogen Ltd, Paisley, UK) containing 10% foetal calf serum (Invitrogen Corporation, Cat No: CT2507), 2 mM L-glutamine (Invitrogen Corporation, Cat No: 25030024), 10 U/ml penicillin and 10 μg/ml streptomycin (Invitrogen Corporation, Cat No: 15140-122). Viable cells are counted by trypan blue staining and diluted to 6.6×10^5 viable cells/ml. About 150 μl of diluted cells are then added to the compound plate and incubated 37 degrees C. for 1 hour prior to addition of 50 μl of 0.125% (v/v) CYTOSTIM (Cat No: 130-092-173, Miltenyi Biotec Ltd., Bisley, Surrey, UK) diluted in assay medium. The assay plate is then incubated at 37° C., 5% CO2, for 20 hours. The supernatant is removed and the concentrations of IFN-γ and IL-5 are determined by electrochemiluminescence assay using the Meso Scale Discovery (MSD) technology (Meso Scale Discovery, Gaithersburg, Md., USA) as described below.
Supernants were assayed using MSD (Meso Scale Discovery) technology using either the ultra sensitive IFN-γ single plex or the IFN-γ/IL-5 multiplex 96-well plates (MA6000). For the IL-5/IFNg multiplex, Human Serum Cytokine Assay Diluent (25 μl) is added to the plates precoated with anti-cytokine antibody and then incubated for 24 hours at 4° C. to prevent non-specific binding. This blocking step is not required for the Ultrasensitive IFN-γ plates. About 25 μl of supernatant from the PBMC plate is then transferred from columns 1-11 to columns 1-11 of the MSD plate using the Biomek FX. About 25 μl of standard (IFN-γ Cat No. Calibrator C0AE, IL-5 Cat No. Calibrator C01AJ, Meso Scale Discovery) are added to column 12 of the MSD plate to generate a standard calibration curve (about 0 to 10000 pg/ml final). Plates are washed after 2 hours shaking with a Skanwasher 300 version B (Skatron Instruments AS. PO Box 8, N-3401 Lier, Norway). […] About 150 μl of Read Buffer T (2×) is added to the plates, which are then read on a MSD Sector 6000. […]

For a further series, the target named is CK2 protein kinase (Homo sapiens, UniProt P68400). The conditions noted are these: background, literature; cited from earlier work.
Sequence of CK2 protein kinase (P68400 whole entry): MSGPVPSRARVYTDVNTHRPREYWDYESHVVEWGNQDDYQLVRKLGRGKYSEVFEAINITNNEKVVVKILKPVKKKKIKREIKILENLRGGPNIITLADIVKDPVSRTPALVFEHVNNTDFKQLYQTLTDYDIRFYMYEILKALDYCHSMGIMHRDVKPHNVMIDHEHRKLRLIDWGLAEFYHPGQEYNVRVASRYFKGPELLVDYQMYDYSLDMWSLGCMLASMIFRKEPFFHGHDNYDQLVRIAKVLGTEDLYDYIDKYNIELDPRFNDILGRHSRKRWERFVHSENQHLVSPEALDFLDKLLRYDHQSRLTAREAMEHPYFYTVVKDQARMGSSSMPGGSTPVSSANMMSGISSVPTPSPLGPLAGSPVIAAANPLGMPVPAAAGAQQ

As to `COc1ncc(-c2cc(NC(=O)c3csc(CN4C[C@@H](C)O[C@@H](C)C4)n3)c3cn[nH]c3c2)cc1NS(=O)(=O)c1ccc(F)cc1F` [Example 94, N-{6-[5-{[(2,4-Difluorophenyl)sulfonyl]amino}-6-(methyloxy)-3-pyridinyl]-1H-indazol-4-yl}-2-{[(2R,6S)-2,6-dimethyl-4-morpholinyl]methyl}-1,3-thiazole-4-carboxamide], the melting point was 211 to 212 °C.
Regarding `COc1ncc(-c2cc(NC(=O)c3csc(CN4C[C@@H](C)O[C@@H](C)C4)n3)c3cn[nH]c3c2)cc1NS(C)(=O)=O` [2-{[(2R,6S)-2,6-dimethyl-4-morpholinyl]methyl}-N-(6-{6-(methyloxy)-5-[(methylsulfonyl)amino]-3-pyridinyl}-1H-indazol-4-yl)-1,3-thiazole-4-carboxamide], in series [1], the IC50 was at most 10 µM.
Take `COc1ncc(-c2cc(NC(=O)c3csc(CN4C[C@@H](C)O[C@@H](C)C4)n3)c3cn[nH]c3c2)cc1NS(=O)(=O)CC(F)(F)F` [2-{[(2R,6S)-2,6-dimethyl-4-morpholinyl]methyl}-N-[6-(6-(methyloxy)-5-{[(2,2,2-trifluoroethyl)sulfonyl]amino}-3-pyridinyl)-1H-indazol-4-yl]-1,3-thiazole-4-carboxamide]: the IC50 in series [1] was at most 10 µM.
As for `COc1ncc(-c2cc(NC(=O)c3csc(CN4C[C@@H](C)O[C@@H](C)C4)n3)c3cnn(C)c3c2)cc1NS(C)(=O)=O` [2-{[(2R,6S)-2,6-dimethyl-4-morpholinyl]methyl}-N-(1-methyl-6-{6-(methyloxy)-5-[(methylsulfonyl)amino]-3-pyridinyl}-1H-indazol-4-yl)-1,3-thiazole-4-carboxamide], in series [1], the IC50 was at most 10 µM.
For `COc1ccccc1S(=O)(=O)Nc1cc(-c2cc(NC(=O)c3csc(CN4C[C@@H](C)O[C@@H](C)C4)n3)c3cn[nH]c3c2)cnc1OC` [2-{[(2R,6S)-2,6-dimethyl-4-morpholinyl]methyl}-N-{6-[6-(methyloxy)-5-({[2-(methyloxy)phenyl]sulfonyl}amino)-3-pyridinyl]-1H-indazol-4-yl}-1,3-thiazole-4-carboxamide], the IC50 in series [1] is at most 10 µM.
For the molecule `O=c1cc(N2CCOCC2)oc2c(-c3ccccc3)cccc12` [LY294002], the IC50 at CK2 protein kinase is 5 to 10 µM.
As to `COc1ncc(-c2cc(NC(=O)c3csc(CN4C[C@@H](C)O[C@@H](C)C4)n3)c3cn[nH]c3c2)cc1NS(=O)(=O)c1ccc(F)cc1F` [N-{6-[5-{[(2,4-difluorophenyl)sulfonyl]amino}-6-(methyloxy)-3-pyridinyl]-1H-indazol-4-yl}-2-{[(2R,6S)-2,6-dimethyl-4-morpholinyl]methyl}-1,3-thiazole-4-carboxamide], the IC50 in series [1] is at most 10 µM.

The term melting point denotes the temperature, or range, at which the solid turns liquid.
